Target: T1, human Chk1 (GST-Chk1) (Homo sapiens, UniProt O14757)
T1 construct: made in house; host or cells: insect cells (baculovirus, Bac-to-Bac)
T1 sequence (O14757 1-476): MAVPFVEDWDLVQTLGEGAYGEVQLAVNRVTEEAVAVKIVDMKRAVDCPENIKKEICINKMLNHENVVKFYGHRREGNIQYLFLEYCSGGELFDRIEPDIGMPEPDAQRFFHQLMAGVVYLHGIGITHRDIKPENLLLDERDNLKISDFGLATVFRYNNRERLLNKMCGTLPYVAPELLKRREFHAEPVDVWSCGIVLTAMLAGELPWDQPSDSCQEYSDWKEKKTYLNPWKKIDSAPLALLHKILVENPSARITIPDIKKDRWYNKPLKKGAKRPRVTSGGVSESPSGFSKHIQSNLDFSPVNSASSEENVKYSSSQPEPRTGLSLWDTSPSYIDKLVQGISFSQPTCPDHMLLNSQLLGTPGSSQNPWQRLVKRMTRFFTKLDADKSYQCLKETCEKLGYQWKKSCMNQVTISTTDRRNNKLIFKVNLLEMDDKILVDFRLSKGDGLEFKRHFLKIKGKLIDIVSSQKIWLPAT
Experiment: Chk1 FlashPlate kinase assay
Type: biochemical
Conditions: 8.7 nM GST-Chk1, 1 uM ATP, 33P incorporation into peptide substrate
Procedure, shortened: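 GST-tagged human Chk1 (8.7 nM), baculovirus-expressed, with 3 uM biotinylated peptide, 1 uM ATP plus ^33P-γ-ATP, in MES/EGTA pH 8.0, DTT, Tween 20, 4% DMSO; 30 min at room temperature. EDTA-stopped; phosphopeptide captured on streptavidin FlashPlates and ^33P counted by scintillation.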

| IC50 | Compound |
| --- | --- |
| < 1000 nM | Cc1[nH]nc2c1c(=O)n(CCCNC(=O)c1ccc(OC(F)(F)F)cc1)c1ccccc21 [Example 125, N-[3-(3-Methyl-4-oxo-2,4-dihydro-pyrazolo[4,3-c]quinolin-5-yl)-propyl]-4-trifluoromethoxy-benzamide] |
| < 1000 nM | Cc1ccc2c(c1)c1n[nH]c(C)c1c(=O)n2CCCN [Example 45, 5-(3-Amino-propyl)-3,8-dimethyl-2,5-dihydro-pyrazolo[4,3-c]quinolin-4-one] |
| < 1000 nM | Cc1[nH]nc2c1c(=O)n(CCCNC(=O)OCc1ccccc1Cl)c1ccccc21 [Example 80, [3-(3-Methyl-4-oxo-2,4-dihydro-pyrazolo[4,3-c]quinolin-5-yl)-propyl]-carbamic acid 2-chloro-benzyl ester] |
| 1000 to 20000 nM | Cc1n[nH]c2c1c(=O)n(CCN1CCOCC1)c1ccccc21 [Example 8, 3-Methyl-5-(2-morpholin-4-yl-ethyl)-1,5-dihydro-pyrazolo[4,3-c]quinolin-4-one] |
| < 1000 nM | Cc1[nH]nc2c1c(=O)n(CCCNC(=O)CCc1ccccc1)c1ccccc21 [Example 62, N-[3-(3-Methyl-4-oxo-2,4-dihydro-pyrazolo[4,3-c]quinolin-5-yl)-propyl]-3-phenyl-propionamide] |
| 1000 to 20000 nM | Cc1[nH]nc2c1c(=O)[nH]c1c(OCCCN)cccc12 [Example 25, 6-(3-Amino-propoxy)-3-methyl-2,5-dihydro-pyrazolo[4,3-c]quinolin-4-one] |
| < 1000 nM | Cc1n[nH]c2c1c(=O)n(CCCN1CCc3ccccc3C1)c1ccccc21 [Example 9, 5-[3-(3,4-Dihydro-1H-isoquinolin-2-yl)-propyl]-3-methyl-1,5-dihydro-pyrazolo[4,3-c]quinolin-4-one] |
| < 1000 nM | Cc1[nH]nc2c1c(=O)n(CCCNC(=O)C1CCCCC1)c1ccccc21 [Example 65, Cyclohexanecarboxylic acid [3-(3-methyl-4-oxo-2,4-dihydro-pyrazolo[4,3-c]quinolin-5-yl)-propyl]-amide] |
| < 1000 nM | CC(=O)NCCCn1c(=O)c2c(C)[nH]nc2c2ccccc21 [Example 86, N-[3-(3-Methyl-4-oxo-2,4-dihydro-pyrazolo[4,3-c]quinolin-5-yl)-propyl]-acetamide] |
| < 1000 nM | Cc1n[nH]c2c1c(=O)n(CCCNC(=O)OCc1ccccc1)c1ccc(Br)cc21 [Example 43, [3-(8-Bromo-3-methyl-4-oxo-1,4-dihydro-pyrazolo[4,3-c]quinolin-5-yl)-propyl]-carbamic acid benzyl ester] |
| < 1000 nM | Cc1[nH]nc2c1c(=O)n(CCCNC(=O)c1ccccc1Cl)c1ccccc21 [Example 84, 2-Chloro-N-[3-(3-methyl-4-oxo-2,4-dihydro-pyrazolo[4,3-c]quinolin-5-yl)-propyl]-benzamide] |
| < 1000 nM | Cc1[nH]nc2c1c(=O)n(CCCNC(=O)c1ccc(Cl)c(Cl)c1)c1ccccc21 [Example 76, 3,4-Dichloro-N-[3-(3-methyl-4-oxo-2,4-dihydro-pyrazolo[4,3-c]quinolin-5-yl)-propyl]-benzamide] |
| < 1000 nM | Cc1n[nH]c2c1c(=O)n(C[C@@H](C)CN)c1ccc(Br)cc21 [Example 47, 5-(3-Amino-2-S-methyl-propyl)-8-bromo-3-methyl-1,5-dihydro-pyrazolo[4,3-c]quinolin-4-one] |
| < 1000 nM | Cc1n[nH]c2c1c(=O)n(CCCNC(=O)OCc1ccccc1)c1ccccc21 [Example 13, [3-(3-Methyl-4-oxo-1,4-dihydro-pyrazolo[4,3-c]quinolin-5-yl)-propyl]-carbamic acid benzyl ester] |
| < 1000 nM | Cc1[nH]nc2c1c(=O)n(CCCNC(=O)c1ccc(F)cc1F)c1ccccc21 [Example 63, 2,4-Difluoro-N-[3-(3-methyl-4-oxo-2,4-dihydro-pyrazolo[4,3-c]quinolin-5-yl)-propyl]-benzamide] |
| < 1000 nM | Cc1[nH]nc2c1c(=O)n(CCCN)c1ccc(N3CCCC3)cc21 [Example 120] |
| < 1000 nM | Cc1n[nH]c2c1c(=O)n(CCCCN)c1ccc(Br)cc21 [Example 34, 5-(4-Amino-butyl)-8-bromo-3-methyl-1,5-dihydro-pyrazolo[4,3-c]quinolin-4-one] |
| < 1000 nM | Cc1[nH]nc2c1c(=O)n(CCCNC(=O)c1ccc(N(C)C)cc1)c1ccccc21 [Example 78, 4-Dimethylamino-N-[3-(3-methyl-4-oxo-2,4-dihydro-pyrazolo[4,3-c]quinolin-5-yl)-propyl]-benzamide] |
